How the values were obtained:
[1] = cited from earlier work
[2] = cited from earlier work; remark: listed apart in the source
[3] = solution of zero salinity; cited from earlier work
[4] = solution of zero salinity

SMILES: O=C1C=C(S(=O)(=O)O)C=C(S(=O)(=O)O)C1=O [1,2-benzoquinone-3,5-disulfonic acid]
- chemical stability in water [1]: chemical instability in water
- reported solubility ([2]; organic PCET molecules from the redox-flow battery literature): 3000 mM

SMILES: O=C(O)O [carbonic acid]
- K1, first dissociation constant [3]: 1.1 µM
- K2, second dissociation constant [3]: 410 pM
- first pKa [4]: 6.0
- second pKa [4]: 9.4

SMILES: c1ccc2nccnc2c1 [quinoxaline]
- solubility ([2]; in water and in weakly alkaline aqueous solution): above 4.0 M
